Assay [1] deals with H1944 cells. The experiment in a line: Cell cycle analysis through propidium iodide staining. The format is cell-based, human. To be noted: 48 hours, 200 nM CFI-402257, 2.5 μM cisplatin, 5 μM etoposide, 500 nM pemetrexed, 50 μM hydroxyurea. The source says:
For cell cycle analysis, cells were stained by BD CycleTEST™ Plus DNA according to the manufacturer's instructions, and then analyzed by FACSCanto 11 (BD Biosciences). For cell viability analysis, cells were stained by propidium iodide (PI) according to the manufacturer's instructions of Annexin V using Alexa Fluor 488 Annexin V dead cell apoptosis kit (Thermo Fisher Scientific, Cat. #V13245) and then analyzed by FACSCanto 11 (BD Biosciences).

Assay [2] concerns H1944 cells. The experiment in a line: Cell viability assay to determine an IC50 (CellTiter-Glo). The format is cell-based, human. The source says: Due to their particular hypersensitivity, H1944 cells were utilized as a model system in which to conduct an unbiased screen of cytotoxic chemotherapies or targeted DNA-damaging agents for their ability to upregulate endogenous 2′3′-cGAMP production following pulse treatment, including cGAS-deficient H2122 cells as a counter-screen (FIGS. 3A and 3B). […] Additionally, hydroxyurea or nocodazole were included as controls to induce S-phase or M-phase cell cycle arrest. The IC50 was identified for each compound for cell viability in H1944 cells, and this concentration was utilized for the screen (FIG. 4A and Table 1). It was shown that each agent induced cellular cytotoxicity and/or DNA-damage response at this concentration, as measured by the induction of propidium iodide positive cells, cleaved PARP fragments, or histone TH2A.X expression (FIGS. 4B and 4C).
3000 cells were plated onto 96-well plates, and then cultured for 72 hours in the presence of each DNA-damaging agent at the indicated concentration. Values of CellTiter-Glo Luminescent Cell Viability assay (Promega) […] were normalized to vehicle treated cells. Plates were read on a Tecan Infinite M200 Pro plate reader and analysis was performed using Prism7 (GraphPad Software). All conditions were tested in triplicate.
In general terms: Cellular ATP, detected with luciferase, serves as a proxy for viable cell number.

The subject of assay [3] is STING pathway. Kind of assay: Immunoblot of STING downstream signaling in H1944 cells treated with MPS1 inhibitors. The assay is classed as cell-based, human. The conditions noted are these: 100 nM BAY-1217389, 250 nM CC-671, compared with 200 nM CFI-402257. As to the method: It was also shown that MPS1 inhibitor-induced cellular cytotoxicity was dependent upon intact STING and STAT1 (FIG. 3K).
On the other hand, reconstitution of STING in STING^absent KL cells such as A549 and H23 cells also sensitized them to MPS1 inhibition, leading to CXCL10 secretion and STAT1 activation (FIGS. 3J, 4H). It was determined that MPS1 inhibitor-induced cellular cytotoxicity and growth arrest in KL cells required activation of STING signaling following 48-hour pulse treatment, and to a lesser degree during continuous 96 hour SAC inhibition, which is also capable of arresting KP cells (FIGS. 3K, 4I-4K). […] Phosphorylation of TBK1 and IFN-β secretion, which are upstream of IFNAR1, were also attenuated by IFNAR1 depletion (FIGS. 3L, 4M, and 4N).
(§1) Cells were lysed in RIPA buffer containing 1× protease inhibitors (Roche, Cat #11-836-145-001) and phosphatase inhibitors (50 mmol/L NaF and 100 mmol/L Na3VO4). […] Imaging of blots and quantitation of bands was performed using the LICOR Odyssey system, or LAS-3000 (Fujifilm).
In general terms: A western blot detects proteins with antibodies after separation by electrophoresis.

Another assay deals with 393P-KL cells. Kind of assay: Efficacy studies in 393P-KL syngeneic model (129S2/SvPasCrl mice). The assay is classed as in vivo, mouse. To be noted: after 12 weeks; decitabine day 1-7 and/or BAY-1217389 day 8, 9, 21, 22; durable response = tumor volume less than 250 mm^3 for at least 50 days after treatment. As to the method: To test this, an efficacy study was performed utilizing the same short-term pulse regimen of the sequential therapy with DAC/MPS1i in 393P-KL syngeneic model. […] Additionally, to further assess the role of an intact immune system, immune-deficient NSG mice were used.

Assay [4] deals with STING pathway. The experiment in a line: Pre-treatment with epigenetic inhibitor followed by pulse MPS1i in STING^Low KL cells (ELISA, immunoblot, immunofluorescence). The assay is classed as cell-based, human.
Text: However, since KL cells epigenetically silence STING, unleashing STING expression might robustly sensitize them to MPS1 inhibition, including cell lines with baseline STING absence. Pre-treatment with the EZH2 inhibitor GSK126, which is able to de-repress STING in STING^Low KL cells lines, H1944, and H1355 cells, was explored (Kitajima et al., 2019) (FIGS. 8B and 8C).
(§2) Human IFN-β (Thermo Fisher Scientific, Cat. #414101), human CXCL10 (R&D systems, Cat. #DIP100), mouse CXCL10 (R&D systems, Cat. #DY466), and 2′3′-cGAMP (Cayman Chemical, Cat. #501700) ELISAs were performed according to the manufacturer's instructions. Conditioned media from each cell lines was collected after 24 hour culture. Values represent the average of four replicates from at least two independent experiments (biological replicates).
as §1
After being grown on chamber slides (CellTreat, Cat #229168) and subjected to various treatment conditions, cells were fixed and permeabilized according to standard protocols. […] Slides were imaged with the Nikon Eclipse 80i microscope, and colocalization was determined using CoLoc2 in ImageJ.
In general terms: In an ELISA, binding on a coated surface is turned into a signal by an enzyme label.

A further assay has as its system KL NSCLC cell lines. Kind of assay: CXCL10 ELISA after exogenous CDN exposure, KL NSCLC cell lines. The conditions noted are these: 24 hours. The assay is classed as cell-based, human.
Text: Treatment with 2′3′-cGAMP or ADU-S100 was utilized to examine the sensitivity of KP or KL NSCLC cell lines to exogenous CDN exposure. […] KL cell response to extracellular CDNs was still modest as compared with endothelial cells (HUVEC) or monocytic THP-1 cells, which also have different membrane permeabilities (FIG. 2C) (Cordova et al., 2021; Luteijn et al., 2019; Ritchie et al., 2019).
as §2

Where [5] appears, read: Homo sapiens, NCI-H1944, 72 hours with drug.

Entries after “also recorded” stand apart in the source; their conditions may differ.

The term IC50 denotes the concentration that inhibits the measured activity by half. Take `N.N.[Cl][Pt][Cl]` [cisplatin]: the cell cycle status result in the assay on H1944 cells [1] was “strongly induced G2/M-arrest”. The molecule also gave an IC50 in the assay with H1944 cells [2] (72 hours with drug) of 3270 nM. Regarding `CNC(=O)c1ccc(Nc2nc(OC3CCCC3)c3c(-c4ccc5nc(C)oc5c4)c[nH]c3n2)c(OC)c1` [CC-671], the “STING downstream signaling, cGAS-dependent (immunoblot)” value with STING pathway [3] was “upregulated to the same extent; also recorded: induced similar cGAS dependent activation of STING signaling”.

For `C[C@@H]1COCCN1c1cc(C2([S@](C)(=N)=O)CC2)nc(-c2cc[nH]c3nccc2-3)n1` [ceralasertib], the IC50 in the assay with H1944 cells [2] (setting [5]) was determined as 1080 nM. On the same count and under the same terms, to `CN(Cc1cnc2nc(N)nc(N)c2n1)c1ccc(C(=O)N[C@@H](CCC(=O)O)C(=O)O)cc1` [methotrexate] belongs 160 nM. Take `COc1ccc(Oc2cc(NCCC(F)(F)F)c3ncc(-c4ccc(C(=O)NC5CC5)c(C)c4)n3n2)c(F)c1F` [BAY-1217389]: the “STING downstream signaling, cGAS-dependent (immunoblot)” value with STING pathway [3] was “upregulated to the same extent; also recorded: induced similar cGAS dependent activation of STING signaling”. In the assay with 393P-KL cells, the “durable, long-term response” value is 0 mice. As to `O=C(c1cc(Cc2n[nH]c(=O)c3ccccc23)ccc1F)N1CCN(C(=O)C2CC2)CC1` [olaparib], the IC50 in the assay on H1944 cells [2] (setting [5]) amounted to 27700 nM.

With `Nc1ncn([C@H]2C[C@H](O)[C@@H](CO)O2)c(=O)n1` [decitabine], the “durable, long-term response” value in the assay with 393P-KL cells is reported as 2/8. Turning to `COC(=O)Nc1nc2ccc(C(=O)c3cccs3)cc2[nH]1` [nocodazole], the IC50 with H1944 cells [2] (setting [5]) worked out at 60.1 nM. For the molecule `COc1cc([C@@H]2c3cc4c(cc3[C@@H](O[C@@H]3O[C@@H]5CO[C@@H](C)O[C@H]5[C@H](O)[C@H]3O)[C@H]3COC(=O)[C@H]23)OCO4)cc(OC)c1O` [etoposide], the IC50 in the assay on H1944 cells [2] (setting [5]) is 4720 nM.

As to `CC[C@H](C)n1cc(C)c2c(C(=O)NCc3c(C)cc(C)[nH]c3=O)cc(-c3ccc(N4CCNCC4)nc3)cc21` [GSK126], the STING levels entry with STING pathway [4] (H1944 cells, 5 μM GSK126 combination with 200 nM CFI-402257) is “upregulated STING levels”. For the same molecule, the “CXCL10 and IFN-β secretion induced by pulse MPS1i treatment after pre-treatment” value in the assay with STING pathway [4] (H1944 or H1355 cells, 5 μM GSK126 pre-treatment, then 200 nM CFI-402257 or 100 nM BAY-1217389) is recorded as “markedly enhanced”. `Cc1cc(-c2cnn3c(NC[C@H]4C[C@@](C)(O)C4)cc(Oc4cccnc4)nc23)ccc1C(=O)NC1CC1` [CFI-402257] returned an IC50 with H1944 cells [2] (setting [5]) of 254 nM. The same measure, in the same setting: with `CC[C@@H]1C(=O)N(C)c2cnc(Nc3ccc(C(=O)N[C@H]4CC[C@H](N5CCN(CC6CC6)CC5)CC4)cc3OC)nc2N1C(C)C` [volasertib] the figure was 8.46 nM.

Turning to `Nc1nc2c(ncn2[C@@H]2O[C@@H]3COP(=O)(O)O[C@H]4[C@@H](O)[C@H](n5cnc6c(N)ncnc65)O[C@@H]4COP(=O)(O)O[C@@H]2[C@@H]3O)c(=O)[nH]1` [2′3′-cGAMP, 2′3′-cyclic GMP-AMP], in the assay with KL NSCLC cell lines (A549, H23, A427, up to 100 μM), the “CXCL10 secretion, STING^Absent KL cell lines” value is recorded as “failed to respond”. The “CXCL10 secretion, STING^Low KL cells” value in the assay with KL NSCLC cell lines (H1944, H2122, H647, H1355, 3.125-100 μM) was “dose-dependent manner”. As to `O=C(O)[C@]1(Cc2cccc(Nc3nccs3)n2)CC[C@@H](Oc2cccc(Cl)c2F)CC1` [MK5108], 3920 nM corresponded to half-maximal inhibition in the assay with H1944 cells [2] (setting [5]) (IC50).

Take `C=CCn1c(=O)c2cnc(Nc3ccc(N4CCN(C)CC4)cc3)nc2n1-c1cccc(C(C)(C)O)n1` [MK1775]: the IC50 in the assay with H1944 cells [2] (setting [5]) worked out at 68.5 nM. On to `Nc1nc2[nH]cc(CCc3ccc(C(=O)N[C@@H](CCC(=O)O)C(=O)O)cc3)c2c(=O)[nH]1` [pemetrexed], for which the cell cycle status entry with H1944 cells [1] is on record as “induced S-phase arrest”. 612 nM corresponded to half-maximal inhibition in the assay on H1944 cells [2] (setting [5]) (IC50). For `CCC1=C[C@@H]2CN(C1)Cc1c([nH]c3ccccc13)[C@@](C(=O)OC)(c1cc3c(cc1OC)N(C)[C@H]1[C@@](O)(C(=O)OC)[C@H](OC(C)=O)[C@]4(CC)C=CCN5CC[C@]31[C@@H]54)C2` [vinorelbine], the IC50 in the assay with H1944 cells [2] (setting [5]) stood at 22.2 nM.

Take `CCN(CCCOc1ccc2c(Nc3cc(CC(=O)Nc4cccc(F)c4)n[nH]3)ncnc2c1)CCOP(=O)(O)O` [barasertib]: half-maximal inhibition with H1944 cells [2] (setting [5]) (IC50) required 160 nM. As to `NC(=O)NO` [hydroxyurea], the cell cycle status entry in the assay on H1944 cells [1] is “induced S-phase arrest”. In the assay with H1944 cells [2] (setting [5]), this molecule came in with an IC50 of 34600 nM.

`COc1cccc(OCCCN)c1-c1cc(Nc2cnc(C#N)cn2)n[nH]1` [prexasertib] yielded an IC50 in the assay with H1944 cells [2] (setting [5]) of 11.3 nM.

(Values after patent publication US20250295686A1, “COMBINATION DECITABINE AND MPS1 INHIBITOR THERAPY TO PRIME CANCER IMMUNOGENICITY” (Dana-Farber Cancer Institute, Inc., priority 2021, published 2025).)
